Assay results as given in US20170150719A1, “FUNGICIDAL PYRAZOLES AND THEIR MIXTURES” (E I DU PONT DE NEMOURS AND COMPANY, priority 2010, published 2017).

Legend:
[1] = tested on: Puccinia recondita f. sp. tritici; experiment: Test H: wheat leaf rust, preventive spray on wheat seedlings, visual disease rating; conditions: 100 = 100% disease control; for Test H rating (disease control) / Test H rating (% disease control): wheat leaf rust; for Test H rating (disease control): sprayed the day before inoculation; for Test H rating (disease control) / pest or weed control at 200 µg/mL: 0 = no disease control; for Test H rating (% disease control): preventive spray, rating without asterisk; for pest or weed control at 200 µg/mL: read-out: Test H rating (disease control), wheat leaf rust, sprayed the day before inoculation
Septoria nodorum = experiment: Test E: Septoria glume blotch, preventive spray on wheat seedlings, visual disease rating; conditions: 100 = 100% disease control; for Test E rating (disease control): Septoria glume blotch; for Test E rating (disease control) / pest or weed control at 200 µg/mL: 0 = no disease control relative to the controls; for Test E rating (% disease control): Septoria glume blotch on wheat, preventive spray, rating without asterisk; for pest or weed control at 200 µg/mL: Parastagonospora nodorum, in Triticum aestivum, read-out: Test E rating (disease control), Septoria glume blotch
Septoria tritici = experiment: Test F: wheat leaf blotch, preventive spray on wheat seedlings, visual disease rating; assay type: in vivo; conditions: 100 = 100% disease control; for Test F rating (disease control) / pest or weed control at 200 µg/mL: 0 = no disease control relative to the controls; for Test F rating (% disease control): preventive spray, rating without asterisk; for pest or weed control at 200 µg/mL: Zymoseptoria tritici
Source text: (§1) A hyphen (-) indicates no test results.

Alternaria solani = experiment: Test B: tomato early blight, preventive spray on tomato seedlings, visual disease rating; conditions: for Test B rating (disease control) / Test B rating (% disease control): tomato early blight, 100 = 100% disease control; for Test B rating (disease control): 0 = no disease control relative to the controls; for Test B rating (% disease control): preventive spray, rating without asterisk; for pest or weed control at 200 µg/mL: Alternaria solani, in Solanum lycopersicum, read-out: Test B rating (disease control)
[2] = tested on: Blumeria graminis f. sp. tritici; experiment: Test I: wheat powdery mildew, preventive spray on wheat seedlings, visual disease rating; conditions: 100 = 100% disease control; for Test I rating (disease control) / Test I rating (% disease control): wheat powdery mildew; for Test I rating (disease control) / pest or weed control at 200 µg/mL: 0 = no disease control relative to the controls; for Test I rating (% disease control): preventive spray, rating without asterisk; for pest or weed control at 200 µg/mL: Blumeria graminis, in Triticum aestivum, read-out: Test I rating (disease control), wheat powdery mildew
Botrytis cinerea = experiment: Test A: tomato Botrytis, preventive spray on tomato seedlings, visual disease rating; conditions: 100 = 100% disease control; for Test A rating (disease control) / Test A rating (% disease control): tomato Botrytis; for Test A rating (disease control) / pest or weed control at 200 µg/mL: 0 = no disease control relative to the controls; for Test A rating (% disease control): preventive spray, 0 = no control relative to controls, rating without asterisk; for pest or weed control at 200 µg/mL: Botrytis cinerea, in Solanum lycopersicum, read-out: Test A rating (disease control), tomato Botrytis
[3] = tested on: Puccinia recondita f. sp. tritici; experiment: Test G: wheat leaf rust, spray after inoculation (curative) on wheat seedlings, visual disease rating; assay type: in vivo; conditions: 100 = 100% disease control; for Test G rating (disease control) / pest or weed control at 200 µg/mL: sprayed after inoculation, 0 = no disease control; for Test G rating (% disease control): spray after inoculation, rating without asterisk
Source text: as §1

SMILES | Test H rating (disease control) [1] [%] | Test E rating (disease control) (Septoria nodorum) [%] | Test F rating (disease control) (Septoria tritici) [%] | Test B rating (disease control) (Alternaria solani) [%] | Test I rating (disease control) [2] [%] | Test A rating (disease control) (Botrytis cinerea) [%] | Test G rating (disease control) [3] [%] | Test H rating (% disease control) [1] [%] | Test E rating (% disease control) (Septoria nodorum) [%] | Test F rating (% disease control) (Septoria tritici) [%] | Test B rating (% disease control) (Alternaria solani) [%] | Test I rating (% disease control) [2] [%] | Test A rating (% disease control) (Botrytis cinerea) [%] | Test G rating (% disease control) [3] [%] | pest or weed control at 200 µg/mL [1] [%] | pest or weed control at 200 µg/mL (Septoria nodorum) [%] | pest or weed control at 200 µg/mL (Septoria tritici) [%] | pest or weed control at 200 µg/mL (Alternaria solani) [%] | pest or weed control at 200 µg/mL [2] [%] | pest or weed control at 200 µg/mL (Botrytis cinerea) [%] | also measured
Cc1nn(C)c(Oc2c(F)cc(C#N)cc2F)c1-c1ccccc1Cl [compound 75] | 99 | 99 | 100 | 99 | 98 | 100 | 0 | – | – | – | – | – | – | – | – | – | – | – | – | – | –
Cc1nn(C)c(Nc2ccc(F)cc2I)c1-c1ccc(F)cc1Cl [compound 181] | – | – | – | – | – | – | – | 99 | 99 | 100 | 99 | 100 | 100 | 99 | – | – | – | – | – | – | –
Cc1nn(C)c(Nc2ccc(F)cc2F)c1-c1ccc(C#N)cc1Cl [compound 107] | 100 | 73 | 100 | 80 | 97 | 100 | 8 | – | – | – | – | – | – | – | – | – | – | – | – | – | –
Cc1nn(C)c(Nc2c(F)cc(F)cc2Cl)c1-c1c(F)cccc1F [Compound 86, N-(2-chloro-4,6-difluorophenyl)-4-(2,6-difluorophenyl)-1,3-dimethyl-1H-pyrazol-5-amine] | – | – | – | – | – | – | – | – | – | – | – | – | – | – | 100 | 90 | 100 | 99 | 100 | 100 | pest or weed control at 200 µg/mL [3]: 0%
Cc1nn(C)c(Nc2c(F)cc(F)cc2F)c1-c1ccc(F)cc1F [Compound 11, 4-(2,4-difluorophenyl)-1,3-dimethyl-N-(2,4,6-trifluorophenyl)-1H-pyrazol-5-amine] | – | – | – | – | – | – | – | – | – | – | – | – | – | – | 100 | 90 | 94 | 99 | 99 | 100 | pest or weed control at 200 µg/mL [3]: 0%
COc1ccc(-c2c(C)nn(C)c2Nc2c(F)cc(F)cc2Br)c(Cl)c1 [compound 221] | – | – | – | – | – | – | – | 99 | 97 | 100 | 100 | 100 | 100 | 73 | – | – | – | – | – | – | –
Cc1nn(C)c(Nc2c(Cl)cc(F)cc2Cl)c1-c1ccc(Cl)cc1F [compound 227] | – | – | – | – | – | – | – | 95 | 0 | 100 | 0 | 96 | 0 | 0 | – | – | – | – | – | – | –
Cc1nn(C)c(Oc2ccc(C#N)cc2Cl)c1-c1c(F)cc(F)cc1F [compound 28] | 99 | 69 | 100 | 17 | 99 | 100 | 26 | – | – | – | – | – | – | – | – | – | – | – | – | – | –
Cc1nn(C)c(Nc2c(F)cc(F)cc2F)c1-c1c(F)cc(C#N)cc1F [compound 35] | 100 | 60 | 99 | 100 | 94 | 100 | 0 | – | – | – | – | – | – | – | – | – | – | – | – | – | –
Cc1nn(C)c(C(O)c2c(F)cc(Cl)cc2F)c1-c1ccc(F)cc1Cl (stereo not drawn) [Compound 148, α-(4-chloro-2,6-difluorophenyl)-4-(2-chloro-4-fluorophenyl)-1,3-dimethyl-1H-pyrazole-5-methanol] | – | – | – | – | – | – | – | – | – | – | – | – | – | – | 100 | 60 | 100 | 0 | 64 | 100 | pest or weed control at 200 µg/mL [3]: 0%
